Source: EPA's ToxRefDB 2

Key:
rat [1] = details: Carcinogenicity, fischer, Oral, Water, dose end: 104 week, group: systemic
mouse [2] = details: Carcinogenicity; other; Injection; Intraperitoneal; dose end: 50 week; group: systemic; systemic / pathology microscopic / lung / adenoma + systemic / pathology microscopic / lymph node / leukemia granulocytic + systemic / …
mouse [3] = details: Subchronic oral toxicity in rodents, b6c3f1, Feed, dose end: 13 week, group: systemic
rat [4] = details: Sub-acute repeat dose toxicity, fischer, Oral, Feed, dose end: 14 day, group: systemic
mouse [5] = details: Multigenerational reproductive toxicity study, cd1, Oral, Feed, dose end: 2 generation
rat [6] = details: Carcinogenicity, fischer, Oral, Feed, dose end: 103 week, group: systemic
rat [7] = details: Subchronic oral toxicity in rodents, fischer, Feed, dose end: 13 week, group: systemic
mouse [8] = details: Carcinogenicity, b6c3f1, Oral, Feed, dose end: 103 week, group: systemic
rat [9] = details: Developmental neurotoxicity study; long evans; Injection; Subcutaneous; dose end: 90 PND; group: cannot be grouped; reproductive / reproductive performance / sex ratio / sex ratio (% male)
mouse [10] = details: Subchronic oral toxicity in rodents, cd1, Feed, dose end: 90 day, group: systemic, systemic / organ weight / liver / absolute + systemic / organ weight / liver / relative to body weight + systemic / organ weight / liver / …
rat [11] = details: Multigenerational reproductive toxicity study, other, Oral, Feed, dose end: 2 generation
rat [12] = details: Combined chronic toxicity/carcinogenicity, sprague dawley, Oral, Feed, dose end: 104 week, group: systemic
mouse [13] = details: Carcinogenicity; cd1; Oral; Feed; dose end: 18 month; group: systemic; systemic / pathology microscopic / liver / hypertrophy
dog [14] = details: Chronic toxicity, beagle, Oral, Feed, dose end: 52 week, group: systemic
dog [15] = details: Chronic toxicity, beagle, Oral, Feed, dose end: 26 week, group: systemic
mouse [16] = details: Carcinogenicity; cd1; Oral; Feed; dose end: 18 month; group: systemic; systemic / organ weight / liver / nos + systemic / pathology microscopic / liver / deformity + systemic / pathology microscopic / liver / …
[17] = systemic / in life observation / body weight / body weight gain + systemic / in life observation / water consumption / water consumption + …
[18] = systemic / in life observation / water consumption / water consumption
[19] = systemic / in life observation / body weight / body weight + systemic / pathology microscopic / liver / mineralization + systemic / …
[20] = systemic / in life observation / food consumption / food consumption
[21] = systemic / in life observation / food consumption / food consumption + systemic / in life observation / body weight / body weight
[22] = group: offspring, systemic / in life observation / body weight / offspring (pup) weight
[23] = group: parental, systemic / in life observation / body weight / body weight + systemic / organ weight / brain / relative to body weight + systemic / organ …
[24] = group: reproductive, reproductive / offspring survival early / birth index / birth index + reproductive / offspring survival early / live fetuses / live fetuses
[25] = systemic / pathology microscopic / kidney / nephropathy
[26] = systemic / pathology microscopic / kidney / nephropathy + systemic / pathology microscopic / kidney / hyperplasia + systemic / pathology …
[27] = systemic / organ weight / kidney / relative to body weight + systemic / organ weight / liver / relative to body weight
[28] = systemic / in life observation / body weight / body weight + systemic / pathology microscopic / thyroid gland / hyperplasia
[29] = group: offspring, systemic / in life observation / body weight / offspring (pup) weight + systemic / in life observation / body weight / offspring (pup) …
[30] = group: parental, systemic / organ weight / liver / relative to body weight
[31] = systemic / clinical chemistry / cholesterol / cholesterol + systemic / in life observation / body weight / body weight gain + systemic / …
[32] = systemic / in life observation / body weight / body weight gain
[33] = systemic / in life observation / body weight / body weight + systemic / in life observation / body weight / body weight gain + systemic / …
[34] = systemic / pathology microscopic / prostate / atrophy + systemic / pathology microscopic / testes / atrophy
[35] = systemic / pathology microscopic / prostate / atrophy + systemic / pathology microscopic / testes / atrophy + systemic / pathology …

What does the source list for O=c1[nH]cc(F)c(=O)[nH]1 [5-Fluorouracil]?
LOAEL (rat [1]; [17]): > 7.42 mg/kg/day; NOAEL (rat [1]; [17]): ≥ 7.42 mg/kg/day; LEL (rat [1]; [18]): 3.85 mg/kg/day; NEL (rat [1]; [18]): < 3.85 mg/kg/day; LEL (mouse [2]): 30 mg/kg/day; LOAEL (mouse [2]): > 30 mg/kg/day; NEL (mouse [2]): < 30 mg/kg/day; NOAEL (mouse [2]): ≥ 30 mg/kg/day

Which LOAEL (mouse [3]; [19]) does the source give for CC(=O)Nc1ccc(O)cc1 [Acetaminophen] here?
Its LOAEL is 1880 mg/kg/day.

And the NEL (mouse [3]; [19])?
The NEL was 480 mg/kg/day.

And the NOAEL (mouse [3]; [19])?
The NOAEL was 930 mg/kg/day.

And the LEL (mouse [3]; systemic / pathology microscopic / liver / cytomegaly + systemic / pathology microscopic / liver / karyomegaly + systemic / pathology …)?
The LEL was 930 mg/kg/day.

What about the NEL (rat [4]; [20]) of the same molecule?
The NEL was 310 mg/kg/day.

And the NOAEL (rat [4]; [20])?
The NOAEL was 310 mg/kg/day.

And the LEL (rat [4]; [21])?
Its LEL is 625 mg/kg/day.

And the LOAEL (rat [4]; [21])?
Its LOAEL is 625 mg/kg/day.

And the LEL (mouse [5]; [22])?
Its LEL is 357 mg/kg/day.

What about the LOAEL (mouse [5]; [22]) of the same molecule?
Its LOAEL is over 1430 mg/kg/day.

What about the NEL (mouse [5]; [22]) of the same molecule?
The NEL was under 357 mg/kg/day.

What about the NOAEL (mouse [5]; [22]) of the same molecule?
Its NOAEL is at least 1430 mg/kg/day.

And the LEL (mouse [5]; [23])?
Its LEL is 1430 mg/kg/day.

And the LOAEL (mouse [5]; [23])?
The LOAEL was over 1430 mg/kg/day.

What about the NEL (mouse [5]; [23]) of the same molecule?
The NEL was 715 mg/kg/day.

What about the NOAEL (mouse [5]; [23]) of the same molecule?
The NOAEL was at least 1430 mg/kg/day.

And the NEL (mouse [5]; group: reproductive, reproductive / offspring survival early / birth index / birth index)?
The NEL was 715 mg/kg/day.

What about the LEL (mouse [5]; [24]) of the same molecule?
Its LEL is 1430 mg/kg/day.

What about the LOAEL (mouse [5]; [24]) of the same molecule?
Its LOAEL is over 1430 mg/kg/day.

And the NOAEL (mouse [5]; [24])?
Its NOAEL is at least 1430 mg/kg/day.

What about the LOAEL (rat [6]; [25]) of the same molecule?
Its LOAEL is 30 mg/kg/day.

And the NOAEL (rat [6]; [25])?
The NOAEL was under 30 mg/kg/day.

What about the LEL (rat [6]; [26]) of the same molecule?
The LEL was 30 mg/kg/day.

And the NEL (rat [6]; [26])?
Its NEL is under 30 mg/kg/day.

And the NOAEL (rat [7]; systemic / in life observation / body weight / body weight + systemic / in life observation / clinical signs / reduced body size + systemic…)?
Its NOAEL is 310 mg/kg/day.

And the LOAEL (rat [7]; systemic / in life observation / body weight / body weight + systemic / pathology microscopic / liver / cytomegaly + systemic / pathology …)?
Its LOAEL is 625 mg/kg/day.

And the LEL (rat [7]; [27])?
The LEL was 40 mg/kg/day.

And the NEL (rat [7]; [27])?
The NEL was under 40 mg/kg/day.

What about the LOAEL (mouse [8]; systemic / in life observation / body weight / body weight) of the same molecule?
Its LOAEL is 1000 mg/kg/day.

What about the LEL (mouse [8]; [28]) of the same molecule?
Its LEL is 90 mg/kg/day.

And the NEL (mouse [8]; [28])?
Its NEL is under 90 mg/kg/day.

And the NOAEL (mouse [8]; [28])?
Its NOAEL is 450 mg/kg/day.

Which results are given for CCN(CC)CC(=O)Nc1c(C)cccc1C [Lidocaine]?
LEL (rat [9]): 6 mg/kg/day; LOAEL (rat [9]): > 9 mg/kg/day; NEL (rat [9]): 3 mg/kg/day; NOAEL (rat [9]): ≥ 9 mg/kg/day

Which LEL (mouse [10]) does the source give for CC1OC(C)OC(C)OC(C)O1 (stereo unspecified) [Metaldehyde acetaldehyde tetramer] here?
The LEL was 178 mg/kg/day.

And the LOAEL (mouse [10])?
Its LOAEL is 178 mg/kg/day.

What about the NEL (mouse [10]) of the same molecule?
The NEL was 54 mg/kg/day.

And the NOAEL (mouse [10])?
The NOAEL was 54 mg/kg/day.

What about the LEL (rat [11]; [29]) of the same molecule?
Its LEL is 134 mg/kg/day.

What about the LOAEL (rat [11]; [29]) of the same molecule?
Its LOAEL is 134 mg/kg/day.

What about the NEL (rat [11]; [29]) of the same molecule?
The NEL was 64.9 mg/kg/day.

What about the NOAEL (rat [11]; [29]) of the same molecule?
The NOAEL was 64.9 mg/kg/day.

What about the LEL (rat [11]; group: parental, systemic / in life observation / body weight / body weight + systemic / in life observation / body weight / body weight gain) of the same molecule?
The LEL was 80.5 mg/kg/day.

And the NEL (rat [11]; group: parental, systemic / in life observation / body weight / body weight + systemic / in life observation / body weight / body weight gain + systemic / in…)?
Its NEL is 4.03 mg/kg/day.

What about the LOAEL (rat [11]; [30]) of the same molecule?
The LOAEL was 134 mg/kg/day.

And the NOAEL (rat [11]; [30])?
The NOAEL was 64.9 mg/kg/day.

And the LOAEL (rat [12]; [31])?
The LOAEL was 44 mg/kg/day.

What about the NOAEL (rat [12]; [31]) of the same molecule?
The NOAEL was 2 mg/kg/day.

And the LEL (rat [12]; [32])?
The LEL was 3 mg/kg/day.

What about the NEL (rat [12]; [32]) of the same molecule?
The NEL was under 3 mg/kg/day.

What about the LEL (mouse [13]) of the same molecule?
The LEL was 48.9 mg/kg/day.

What about the LOAEL (mouse [13]) of the same molecule?
The LOAEL was 48.9 mg/kg/day.

What about the NEL (mouse [13]) of the same molecule?
Its NEL is 15.9 mg/kg/day.

And the NOAEL (mouse [13])?
The NOAEL was 15.9 mg/kg/day.

And the LEL (dog [14]; [33])?
The LEL was 10 mg/kg/day.

What about the NEL (dog [14]; [33]) of the same molecule?
Its NEL is under 10 mg/kg/day.

And the NOAEL (dog [14]; systemic / in life observation / mortality / mortality + systemic / clinical chemistry / alkaline phosphatase (alp/alk) / alkaline …)?
The NOAEL was 10 mg/kg/day.

And the LOAEL (dog [14]; systemic / in life observation / mortality / mortality + systemic / pathology microscopic / prostate / atrophy + systemic / pathology …)?
Its LOAEL is 30 mg/kg/day.

What about the LEL (dog [15]; [34]) of the same molecule?
Its LEL is 60 mg/kg/day.

What about the LOAEL (dog [15]; [34]) of the same molecule?
The LOAEL was 60 mg/kg/day.

What about the NEL (dog [15]; [35]) of the same molecule?
Its NEL is 20 mg/kg/day.

What about the NOAEL (dog [15]; [35]) of the same molecule?
The NOAEL was 20 mg/kg/day.

And the LEL (mouse [16])?
Its LEL is 135 mg/kg/day.

And the LOAEL (mouse [16])?
The LOAEL was 135 mg/kg/day.

And the NEL (mouse [16])?
The NEL was under 135 mg/kg/day.

And the NOAEL (mouse [16])?
Its NOAEL is under 135 mg/kg/day.
